Entries after “also recorded” stand apart in the source; their conditions may differ. Marks after values point to notes of the source that are not given here.
Key:
Caco-2 cells [1] = experiment: Adsorption of chelate compounds to cells (HPLC and mass spectrometry); assay type: cell-based, human; conditions: for Adsorption Caco-2: 50 µM chelate compound, 0, 30 and 90 minutes at 37 °C, % adsorbed relative to time zero
Text: (§1) As a prerequisite for the understanding of the functional attributes of Tb-PCTMB and Eu-QCTME for diagnostics and therapeutic purposes, and for other uses, it is useful to synthesize a series of chelate compounds that contain structural elements of both PCTMB and QCTME and test these compounds for adsorption and permeability to different cell lines. The first approach was to test for adsorption to a normal cell line (HEK293) and to two epithelial cancer cell lines (LNCaP and Caco-2). The second approach, described in this example, involves testing only the compounds that adsorbed in the cancer cell lines and not in the normal cell lines for permeability. Adsorption and permeability of the compounds to epithelial cancer cell lines and a normal cell line was measured through the detection of the compound by HPLC and mass spectrometry.
(§2) Cell cultures. LNCaP cell line is a human prostate carcinoma. Cells were grown in RPMI 1640 Medium supplemented 10% FBS, 2 mM L-glutamine, glucose (2 g/L) augmented with gentamicin (50 μg/mL), penicillin/streptomycin (100 IU/mL/100 μg/mL) and amphotericin B (2.5 μg/mL). Caco-2 cell line is a human colorectal carcinoma. These cells were grown in Eagle's Minimum Essential Medium supplemented with 20% FBS, Earle's BSS, 2 mM L-glutamine, 1.0 mM sodium pyruvate, 0.1 mM nonessential amino acids augmented with gentamicin (50 μg/mL), penicillin/streptomycin (100 IU/mL/100 μg/mL), and amphotericin B (2.5 μg/mL). The human kidney transformed cells HEK293 were grown in Eagle's Minimum Essential Medium (EMEM) supplemented with 10% (v/v) heat-inactivated fetal bovine serum, sodium pyruvate, nonessential amino acids and antibiotics in a humidified 5% CO2 atmosphere at 37° C. Medium and supplements were purchased from Gibco BRL (Grand Island, N.Y.) and all cell lines were obtained from ATCC.
(§3) Detection of chelate compounds for the determination of adsorption. Cells were grown to confluence in T-150 flasks (about 2×10^7 cells). Before treating with chelate compounds, cells were rinsed twice with warm 10 mM HEPES (Gibco BRL, Grand Island N.Y.), removed from the flask, and transferred to a 50-mL conical tube and centrifuged (400×g) for 5 minutes. The resulting cells were treated with individual chelate compounds with 50 µM of chelate compounds in 10 mM HEPES, pH 7.4, 5 mM KCl, 150 mM NaCl, 0.7 mM NaH2PO4 for 0, 30, and 90 minutes at 37 ° C. After treatment, cells were pelleted by centrifugation and the resulting solution was analyzed by a combination of HPLC and mass spectrometry.

HEK293 cells [2] = experiment: as above; assay type: cell-based, human; conditions: for Adsorption HEK293: 50 µM chelate compound, 0, 30 and 90 minutes at 37 °C, % adsorbed relative to time zero
Text: as §1, §2, §3

LNCaP cells [3] = experiment: as above; assay type: cell-based, human; conditions: for Adsorption LNCaP: 50 µM chelate compound, 0, 30 and 90 minutes at 37 °C, % adsorbed relative to time zero
Text: as §1, §2, §3

HEK293 cells [4] = experiment: Permeability: detection of chelate compounds in the cytoplasm; assay type: cell-based, human; design: key: Absence = 0; presence = +; conditions: 50 μM, 90 minutes at 37 °C
Method: as §2
(§4) Detection of chelant compounds for the determination of permeability. Cells were grown to confluence in T-150 flasks (about 2×10^7 cells). Before treating with chelate compounds, cells were rinsed twice with warm 10 mM HEPES (Gibco BRL, Grand Island N.Y.), removed from the flask, and transferred to a 50-mL conical tube and centrifuged (400×g) for 5 minutes. The resulting cells were treated with individual chelate compounds with 50 μM of chelate compounds in 10 mM HEPES, pH 7.4, 5 mM KCl, 150 mM NaCl, 0.7 mM NaH2PO4 for 90 minutes at 37° C. After treatment, cells were pelleted by centrifugation, the cytoplasm was extracted by Mem-PER Eukaryotic Membrane Protein Extraction Reagent Kit as described by manufacturers (Pierce biotechnology, Rockford, Ill.) and the resulting solution was analyzed by a combination of HPLC and mass spectrometry (Table 8).

Caco-2 cells [5] = experiment: as above; assay type: cell-based, human; design: key to Permeability Caco-2: Absence = 0; presence = +; conditions: for Permeability Caco-2: 50 μM, 90 minutes at 37 °C, detection in the cytoplasm; for detection within the cytoplasm: carcinoma cell line Caco-2
Method: as §2, §4

LNCaP cells [6] = experiment: as above; assay type: cell-based, human; design: key to Permeability LNCaP: Absence = 0; presence = +; conditions: for Permeability LNCaP: 50 μM, 90 minutes at 37 °C, detection in the cytoplasm; for detection within the cytoplasm: carcinoma cell line LNCaP
Method: as §2, §4

Amphiphysin I = target: T1, Amphiphysin I (Homo sapiens, UniProt P49418); experiment: Elution and identification of target-chelate compound associations; assay type: binding
T1 construct: Caco-2 and LNCaP cell lines were lysed by sonication or by lysis in hypotonic buffer; endogenous in cells; host or cells: Caco-2 and LNCaP
T1 sequence (P49418 1-653 isoform P49418-2): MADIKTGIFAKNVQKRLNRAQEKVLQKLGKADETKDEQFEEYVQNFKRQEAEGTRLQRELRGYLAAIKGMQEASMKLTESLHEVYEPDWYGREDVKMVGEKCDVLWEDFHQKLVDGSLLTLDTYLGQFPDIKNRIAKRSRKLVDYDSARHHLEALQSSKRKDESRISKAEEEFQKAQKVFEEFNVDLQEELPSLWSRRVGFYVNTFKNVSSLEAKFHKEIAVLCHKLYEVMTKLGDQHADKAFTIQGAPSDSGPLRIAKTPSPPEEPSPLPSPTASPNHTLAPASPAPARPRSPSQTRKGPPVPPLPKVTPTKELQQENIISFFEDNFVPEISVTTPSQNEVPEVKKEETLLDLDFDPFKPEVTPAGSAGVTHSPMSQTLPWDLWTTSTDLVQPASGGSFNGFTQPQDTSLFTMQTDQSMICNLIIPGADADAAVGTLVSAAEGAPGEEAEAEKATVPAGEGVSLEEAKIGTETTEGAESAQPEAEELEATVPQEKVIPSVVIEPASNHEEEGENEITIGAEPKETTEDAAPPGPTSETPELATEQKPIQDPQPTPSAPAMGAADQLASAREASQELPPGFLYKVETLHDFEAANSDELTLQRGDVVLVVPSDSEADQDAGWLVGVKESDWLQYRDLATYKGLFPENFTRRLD
Method: (§5) Identification of novel target-chelate compound associations—Caco-2 and LNCaP cell lines were lysed by sonication or by lysis in hypotonic buffer. Soluble proteins were enriched and captured on an affinity support column. […] Proteins were eluted by adding different chelate compounds that compete for the bound ligand or change the steric structure of a given protein(s). Eluted samples were analyzed by high resolution SDS-PAGE. The protein-chelate compound associations were further analyzed to identify the different proteins by excising the corresponding protein bands from the gel, which was then treated with trypsin and purified. […]

BiP = target: T2, BiP (Homo sapiens, UniProt P11021); experiment: as above; assay type: binding
T2 construct: Caco-2 and LNCaP cell lines were lysed by sonication or by lysis in hypotonic buffer; endogenous in cells; host or cells: Caco-2 and LNCaP
T2 sequence (P11021 19-654): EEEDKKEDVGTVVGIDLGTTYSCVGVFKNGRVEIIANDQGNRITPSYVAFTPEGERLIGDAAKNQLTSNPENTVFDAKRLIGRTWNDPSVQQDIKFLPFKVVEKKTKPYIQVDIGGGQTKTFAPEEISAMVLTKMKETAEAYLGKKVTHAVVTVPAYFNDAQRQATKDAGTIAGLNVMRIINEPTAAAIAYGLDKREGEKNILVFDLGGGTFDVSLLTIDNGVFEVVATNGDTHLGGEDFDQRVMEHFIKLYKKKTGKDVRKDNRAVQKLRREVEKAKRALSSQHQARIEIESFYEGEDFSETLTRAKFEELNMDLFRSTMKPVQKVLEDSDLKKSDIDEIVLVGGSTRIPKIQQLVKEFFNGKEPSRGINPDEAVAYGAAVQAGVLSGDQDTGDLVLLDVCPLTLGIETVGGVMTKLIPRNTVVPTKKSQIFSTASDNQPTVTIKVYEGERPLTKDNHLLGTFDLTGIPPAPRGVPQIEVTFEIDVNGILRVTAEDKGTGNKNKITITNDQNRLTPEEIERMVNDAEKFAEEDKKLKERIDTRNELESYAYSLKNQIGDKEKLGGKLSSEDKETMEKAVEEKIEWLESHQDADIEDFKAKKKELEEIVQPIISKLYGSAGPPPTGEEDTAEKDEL
Method: as §5

[7] = Solubility of chelate compounds; conditions: <5% methanol, ethanol, or DMSO
Cytokeratin 8 = target: T3, Cytokeratin 8 (Homo sapiens, UniProt P05787); experiment: Elution and identification of target-chelate compound associations; assay type: binding
T3 construct: Caco-2 and LNCaP cell lines were lysed by sonication or by lysis in hypotonic buffer; endogenous in cells; host or cells: Caco-2 and LNCaP
T3 sequence (P05787 1-483): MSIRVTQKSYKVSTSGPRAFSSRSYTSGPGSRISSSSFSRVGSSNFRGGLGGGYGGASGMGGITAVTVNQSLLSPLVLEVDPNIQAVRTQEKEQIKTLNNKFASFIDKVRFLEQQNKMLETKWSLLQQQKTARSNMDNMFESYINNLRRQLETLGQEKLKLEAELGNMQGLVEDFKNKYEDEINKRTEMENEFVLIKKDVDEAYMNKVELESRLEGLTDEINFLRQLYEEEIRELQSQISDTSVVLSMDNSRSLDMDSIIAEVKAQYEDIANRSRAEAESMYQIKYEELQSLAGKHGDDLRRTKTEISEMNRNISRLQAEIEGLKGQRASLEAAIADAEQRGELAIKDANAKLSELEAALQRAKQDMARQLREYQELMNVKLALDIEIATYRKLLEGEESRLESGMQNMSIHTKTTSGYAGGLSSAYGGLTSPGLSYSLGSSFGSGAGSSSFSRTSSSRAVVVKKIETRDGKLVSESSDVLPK
T3 sequence (P05783 2-430 partner limits assumed): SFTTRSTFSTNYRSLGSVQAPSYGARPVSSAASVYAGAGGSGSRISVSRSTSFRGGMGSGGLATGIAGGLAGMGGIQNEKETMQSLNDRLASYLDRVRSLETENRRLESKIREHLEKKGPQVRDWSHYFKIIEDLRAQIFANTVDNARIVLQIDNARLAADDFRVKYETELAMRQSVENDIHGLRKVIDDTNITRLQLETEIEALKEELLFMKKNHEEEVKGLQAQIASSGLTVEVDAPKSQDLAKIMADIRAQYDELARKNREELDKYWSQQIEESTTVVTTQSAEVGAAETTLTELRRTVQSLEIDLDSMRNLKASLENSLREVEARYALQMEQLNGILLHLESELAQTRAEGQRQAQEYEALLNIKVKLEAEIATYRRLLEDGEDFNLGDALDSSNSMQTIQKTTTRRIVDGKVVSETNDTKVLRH
Method: as §5

Keratin 18 = target: T4, Keratin 18 (Homo sapiens, UniProt P05783); experiment: as above; assay type: binding
T4 construct: Caco-2 and LNCaP cell lines were lysed by sonication or by lysis in hypotonic buffer; endogenous in cells; host or cells: Caco-2 and LNCaP
T4 sequence (P05783 2-430 limits assumed): T3 sequence (P05783 2-430 partner limits assumed)
T4 sequence (P05787 1-483 partner): T3 sequence (P05787 1-483)
Method: as §5

| SMILES | adsorption in carcinoma cell line Caco-2 (Caco-2 cells [1]) | Adsorption Caco-2 (Caco-2 cells [1]) | adsorption in normal cells (HEK293) (HEK293 cells [2]) | Adsorption HEK293 (HEK293 cells [2]) | adsorption in carcinoma cell line LNCaP (LNCaP cells [3]) | Adsorption LNCaP (LNCaP cells [3]) | Permeability HEK293 (HEK293 cells [4]) | Permeability Caco-2 (Caco-2 cells [5]) | detection within the cytoplasm (Caco-2 cells [5]) | Permeability LNCaP (LNCaP cells [6]) | detection within the cytoplasm (LNCaP cells [6]) | binding to amphiphysin I (Seq. ID No. 7) (Amphiphysin I) | binding to BiP (Seq. ID No. 5) (BiP) | solubility [7] [mM] | binding to cytokeratin 8 (Seq. ID No. 10) (Cytokeratin 8) | binding to keratin 18 (Seq. ID No. 9) (Keratin 18) |
| --- | --- | --- | --- | --- | --- | --- | --- | --- | --- | --- | --- | --- | --- | --- | --- | --- |
| CCCCOP(=O)(O)Cc1ccc2cc(C)ccc2n1 [Compound 3] | adsorbed | ++ (++ = 21-40%) | not adsorbed | 0 (0 = 0-10%) | adsorbed | ++++ (++++ = >60%) | 0 | + | detected within the cytoplasm | + | detected within the cytoplasm | found to bind; also recorded: bind specifically | found to bind; also recorded: bind specifically | > 10 | – | – |
| CCOP(=O)(O)Cc1ccc2cc(C)ccc2n1 [Compound 2] | adsorbed | ++ (++ = 21-40%) | not adsorbed | 0 (0 = 0-10%) | adsorbed | ++ (++ = 21-40%) | 0^b | + | detected within the cytoplasm | + | detected within the cytoplasm | found to bind; also recorded: bind specifically | found to bind; also recorded: bind specifically | > 10 | – | – |
| CCCCOP(=O)(O)Cc1c(C)c(CP(=O)(O)OCCCC)c(C)c(CP(=O)(O)OCCCC)c1C [Compound 12, [3,5-Bis-(Butoxy-hydroxy-phosphorylmethyl)-2,4,6-trimethyl-benzyl]-phosphonic acid monobutyl ester] | adsorbed | ++++ (++++ = >60%) | not adsorbed | 0 (0 = 0-10%) | adsorbed | +++ (+++ = 41-60%) | 0 | + | detected within the cytoplasm | + | detected within the cytoplasm | – | – | > 10 | found to bind; also recorded: bind specifically | found to bind; also recorded: bind specifically |
| CCCCOP(=O)(O)Cc1cc(CP(=O)(O)OCCCC)cc(CP(=O)(O)OCCCC)c1 [Compound 9, [3,5-Bis-(Butoxy-hydroxy-phosphorylmethyl)-benzyl]-phosphonic acid monobutyl ester] | adsorbed | ++ (++ = 21-40%) | not adsorbed | 0 (0 = 0-10%) | adsorbed | ++ (++ = 21-40%) | 0 | + | detected within the cytoplasm | + | detected within the cytoplasm | – | – | > 10 | found to bind; also recorded: bind specifically | found to bind; also recorded: bind specifically |

— patent publication US20060210479A1 (Dow Global Technologies Inc., priority 2004, published 2006)
